Here are results for eight compounds from patent US6159953A, “Anti-malarial composition and method of use” (Catholic University of America, priority 1992, dated 2000).

The structures appear in SMILES notation. Where two headings read alike, the source gives them in different places.

For data set [1], the system named is Plasmodium falciparum, Sierra Leone clone D6. In words: Inhibition of P. falciparum proliferation, [G-3H]-hypoxanthine incorporation, Sierra Leone clone D6 (chloroquine-sensitive). Type of data set: cell-based. The conditions noted are these: Sierra Leone clone; for IC50: Plasmodium falciparum, D6, Table 1, mean ± S.D. of five independent drug response curves; for Molar Index: equimolar activity of 5-fluoroorotate relative to the conventional drug. The method, then:
(§1) 3. Effects of pyrimidine analogues alone or in combination with normal pyrimidine bases or nucleosides or with amino acid derivatives can be tested in malaria parasite-infected erythrocytes. Varying concentrations of pyrimidine analogues in culture medium are added to individual wells of microtitre plates [Desjardins, R. E. et al., Antimicrob. […] Parasitemic erythrocytes in culture medium are added to each well. […] As an alternative to adding a radioactive precursor of nucleic acid biosynthesis, the end point for determining the effects of added drugs can be the incorporation of a radioactive amino acid, e.g., [U-^14 C]-isoleucine, into parasite protein.
Fluoropyrimidines, dispersed in 25 μl of culture medium, were added to individual wells of a 96-well microtitre plate. […] Finally, the incorporation of 0.5 μCi of [G-^3 H]hypoxanthine (1 Ci/mmol) into nucleic acids in each well was determined; this served as a measure of parasite proliferation. […] In a second method, the increase in parasitemia was determined directly by smearing infected erythrocytes on microscope slides, staining with Giemsa stain, and determining the ratio of infected to non-infected erythrocytes. In a third method, parasite-infected erythrocytes were incubated with [U-^14 C]-isoleucine (0.5 μCi; 0.33 Ci/mmol), and the amount of radioactivity incorporated into precipitable proteins determined.

Data set [2] relates to Plasmodium falciparum, Indochina clone W2. Briefly: microbe, parasite or virus in culture. The conditions noted are these: for Molar Index: Indochina clone, equimolar activity of 5-fluoroorotate relative to the conventional drug; for IC50: Plasmodium falciparum. As to the method:
In the antimalarial experiment with parasites, incorporation of radioactivity from [G-^3 H]-hypoxanthine into nucleic acids served as a measure of parasite proliferation. […] Each data point represents an average of two determinations. In the study of toxicity to human cells, proliferation of cells was determined directly by measuring the number of viable cells per well. […] Each data point represents an average of two determinations. 5-fluoro-orotate (.circle-solid.), 5-fluorouracil (.box-solid.), 5-fluorouridine (.tangle-solidup.), and 5-fluoro-2'-deoxyuridine (.diamond-solid.).
(§2) Half shaded symbols represent overlapping data points.
as §1
Fluoropyrimidines, dispersed in 25 μl of culture medium, were added to individual wells of a 96-well microtitre plate. […] Finally, the incorporation of 0.5 μCi of [G-^3 H]hypoxanthine (1 Ci/mmol) into nucleic acids in each well was determined; this served as a measure of parasite proliferation.

The conditions of data set [3]: cited from earlier work.
Data set [4] concerns HT-1080 human fibrosarcoma cells. Briefly: Toxicity to cultured HT-1080 cells, number of viable cells. Type of data set: cell-based. The conditions noted are these: Homo sapiens, HT-1080, 48 h. As to the method: Each data point represents an average of two determinations. […] Each data point represents an average of two determinations.
as §2
Toxicity of pyrimidine analogues to cultured human cells is determined as follows. Mammalian cells are seeded into culture plate wells, and growth medium is added. The following day, fresh culture medium containing the appropriate pyrimidine analogues is added to the wells, and the plates incubated for a period of time and at a temperature appropriate to the cell line and the experimental requirements. Thereafter, the number of cells in each well is determined. […] Cells that grow in suspension (e.g., HL-60 and L-1210 cells) are transferred to centrifuge tubes, pelleted at low speed, washed, and the viability determined as above.
HT-1080 cells were seeded into 6-well culture plates at a density of 50,000 cells per 9.6 cm^2 well. Each well contained 2.5 ml of growth medium. […] After 1 minute, the detached cells were suspended in 1.0 ml of EMEM and collected by centrifugation at 300×g for 3 minutes. […] The concentrations of viable cells were determined in a hemocytometer.

The next data set deals with thymidylate synthesis. To be noted: Heidelberger 1983; cited from earlier work.
The next data set relates to P. yoelii. In words: Anti-malarial activity in P. yoelii-infected mice. In kind it is in vivo, P. yoelii in Swiss white mice. The conditions noted are these: experiment 2 control, 800 mg/kg uridine alone. The method, then:
FIG. 4 illustrates the effect of 5-fluoro-orotate treatment on blood parasitemia. Mice infected with P. yoelii on day 0 in experiments 1 and 2 were treated with (A) 0.2 mg/kg 5-fluoro-orotate, (B) 1 mg/kg, or (C) 5 mg/kg every 4 hours for three days. Control mice (.largecircle., .circle-solid., respectively), received no drug. Open symbols represent treatment without uridine (experiment 1: .smallcircle., .quadrature., .diamond., Δ), and filled symbols represent animals also treated with uridine (experiment 2: .circle-solid., .box-solid., .diamond-solid., .tangle-solidup.). Animals were treated with 5-fluoro-orotate on days 3 to 6. Animals were also treated with uridine in experiment 2 on days 3 to 9.
FIG. 5 illustrates the survival rate of mice infected with P. yoelii and treated with 5-fluoro-orotate, alone or in combination with uridine. Mice were treated with (A) 0.2 mg/kg 5-fluoro-orotate, (B) 1 mg/kg, or (C) 5 mg/kg. Control mice received no 5-fluoro-orotate (.largecircle., .circle-solid., respectively). Open symbols represent treatment without uridine (experiment 1: .largecircle., .quadrature., .diamond., Δ), and closed symbols represent animals also receiving uridine (experiment 2: .circle-solid., .box-solid., .diamond-solid., .tangle-solidup.).
A second in vivo test system can be used to determine if repeated administration of the pyrimidine analogue would have safe anti-malarial activity. In this test system, groups of animals are infected with malaria parasites. At a time when blood parasitemia is reached, the animals are injected with saline alone (control) or with various concentrations of one or more pyrimidine analogues alone or together with one or more rescuing pyrimidine bases or nucleosides at a single concentration, at intervals, over a period of several days. In order to determine the prophylactic effectiveness of the rescuing pyrimidine base or nucleoside, the animals are pretreated with such a base or nucleoside prior to the administration of the pyrimidine analogue. Anti-malarial activity of the treatments is estimated by determining blood parasitemia on the animals at appropriate times. The safety of the treatments is estimated by monitoring animals for weight loss and diarrhea, as these are early symptoms of pyrimidine analogue toxicity [Houghton, J. A., et al., Cancer Res., 39:2406-13 (1979)].
Swiss white mice (25-30 g) were divided into groups of five. On day 0, each mouse was infected by intraperitoneal injection of 10^5 erythrocytic forms of P. yoelii. Starting on day 3, when the blood parasitemia had reached between 5 and 12%, the mice were injected intraperitoneally every 4 hours for three consecutive days with 200 μl of various formulations. […]

Setting [5] is: text value (FIG. 1B), read-out: IC50.

For the compound `CCN(CC)CCCC(C)Nc1ccnc2cc(Cl)ccc12` (stereo not shown) [Chloroquine], the IC50 was 9 ± 1.7 nM in data set [1] and 127 ± 23 nM in data set [2] (W2). For the same compound, the “Molar Index” value in data set [1] was 1.6; in data set [2] it was 21. In data set [3] (oral), the “tolerability, oral” value was “typically is well-tolerated”. Moreover, in data set [3] (parenteral, children), the “safety, parenteral” value was “may cause cardiac arrhythmia and sudden death in children”.

On to `O=c1[nH]c(=O)n([C@@H]2O[C@H](CO)[C@@H](O)[C@H]2O)cc1F` [5-fluoro-uridine, reference compound], for which the IC50 is 32000 nM in data set [2] (W2, 48 h) and 30 nM in data set [4] (setting [5]).

As to `O=c1[nH]cc(F)c(=O)[nH]1` [5-fluoro-uracil, reference compound], the IC50 stood at 12000 nM in data set [2] (W2, 48 h) and 2000 nM in data set [4] (read-out: IC50 (50% inhibition)).

On to `COc1ncnc(NS(=O)(=O)c2ccc(N)cc2)c1OC` [Sulfadoxine], for which the results for the IC50 in data set [1] (read-out: IC50) and in data set [2] (W2) were 76.2 ± 13.2 nM and 25600 ± 7080 nM, respectively. The “Molar Index” value came to 13.5 in data set [1] and 4344 in data set [2].

Regarding `O=c1[nH]c(=O)n([C@H]2C[C@H](O)[C@@H](CO)O2)cc1F` [5-fluoro-2'-deoxyuridine, reference compound], the concentration for half-maximal inhibition (IC50) in data set [2] (W2, 48 h) was 100000 nM; in data set [4] (setting [5]), 10 nM.

For the compound `O=c1[nH]c(=O)n([C@H]2C[C@H](O)[C@@H](COP(=O)(O)O)O2)cc1F` [5-fluoro-2'-deoxy-uridylate], the “inhibition of thymidylate synthesis” value with thymidylate synthesis is reported as “potent enzyme-activated inhibitor of thymidylate synthesis”.

With `O=c1ccn([C@@H]2O[C@H](CO)[C@@H](O)[C@H]2O)c(=O)[nH]1` [uridine, reference compound], the “mortality, uridine alone” value in the data set with P. yoelii is reported as “all succumbed to P. yoelii”.

Consider `CCc1nc(N)nc(N)c1-c1ccc(Cl)cc1` [Pyrimethamine], for which the values for the half-maximal inhibitory concentration (IC50) in data set [1] (read-out: IC50) and in data set [2] (W2) were 0.24 ± 0.16 nM and 111 ± 29 nM, respectively. The “Molar Index” value in data set [1] is 0.04; in data set [2], 19.

As usually defined, the IC50 is the concentration that inhibits the measured activity by half.
